Laboratory results taken from patent publication US20230066011A1, “PYRROLOPYRIMIDINE DERIVATIVE, AND PHARMACEUTICAL COMPOSITION FOR PREVENTING OR TREATING PROTEIN KINASE-RELATED DISEASE COMPRISING SAME AS ACTIVE INGREDIENT” (VORONOI CO., LTD., priority 2019, published 2023).

Tests used:
Format in all cases: biochemical
[1] = biological target: T1, human GST-DYRK1A (Homo sapiens, UniProt Q13627); test: GST-DYRK1A enzyme inhibition, ADP-Glo kinase assay; conditions: ATP 10 μM, GST-DYRK1A full length, read-out: DYRK1 IC50
T1 construct: purified human GST-DYRK1A (full length, Thermo Scientifics) enzyme; purchased Thermo Scientifics
How it was run: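 Full-length human GST-DYRK1A (10 ng) with 10 μM ATP and specific substrate in 40 mM Tris-HCl pH 7.4, 20 mM MgCl2, 0.5 mg/mL BSA, 50 μM DTT, 1 h at 25 °C. ADP formation read by ADP-Glo luminescence relative to solvent control; IC50 from three data sets.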

[2] = biological target: T2, human GST-CLK1 (Homo sapiens, UniProt P49759); test: GST-CLK1 enzyme inhibition, ADP-Glo kinase assay; conditions: ATP 10 μM, GST-CLK1 129-end
T2 construct: purified human GST-CLK1 (129-end, SignalChem) enzyme; purchased SignalChem
How it was run: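 Human GST-CLK1 (129-end, 3 ng) reacted with substrate and 10 μM ATP for 1 h at 25° C in 40 mM Tris-HCl pH 7.4, 20 mM MgCl2, 0.5 mg/mL BSA, 50 μM DTT. ADP-Glo luminescence was normalised to solvent control; IC50 (nM) from 3 data sets.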

[3] = biological target: LRRK2 (G2019S) (Homo sapiens, UniProt Q5S007, G2019S); test: LRRK2 G2019S enzyme inhibition, ADP-Glo kinase assay; design: purchased SignalChem L10-12GG; conditions: ATP 25 μM
Description: To evaluate an inhibitory activity of the compound according to the present invention against LRRK2, LRRK2 (G2019S), DYRK1, CLK1, and TTK kinases, experiments were performed as follows.
Each of the Example compounds was reacted with a purified human LRRK2 G2019S (L10-12GG, SignalChem) enzyme to evaluate an ability to inhibit an enzyme using a method as described below. A composition of 40 mM Tris-HCl (pH 7.4), 20 mM MgCl2, 0.5 mg/mL BSA, and 50 μM DTT was used as a reaction buffer, and all reactions of test substances were performed in the reaction buffer. Each of the compounds was diluted […] from a 10 mM DMSO stock using a serial dilution method, and enzyme activities were measured at final compound concentrations of 50, 10, 2, 0.4, 0.08, 0.016, 0.0032, 0.00064, 0.000128, 0.0000256, 0.00000512, and 0.000001024 μM. In the test, purified ATP (25 μM) and an enzyme substrate (0.2 μg) were reacted with a human LRRK2 G2019S (16 ng) enzyme at 25° C. for 2 hours, and the enzyme activities were then determined using an in vitro ADP-Glo™ kinase assay (Promega). An enzyme-activity reaction solution, an ADP-Glo reaction solution, and an enzyme-ability detection solution were reacted at a ratio of 2:2:1 to measure a degree of inhibition of the enzyme activity with luminescence. The degree of inhibition of the enzyme activity according to the treatment concentration of each of the compounds was calculated based on the fluorescence of the enzyme activity of the solvent control which was not treated with the compound. In this case, the concentration of each of the compounds inhibiting 50% of the enzyme activity was determined to be an IC50 (nM) value, and calculated using Prism (Version 5.01; GraphPad) software.

T2 sequence (P49759 129-484 limits assumed): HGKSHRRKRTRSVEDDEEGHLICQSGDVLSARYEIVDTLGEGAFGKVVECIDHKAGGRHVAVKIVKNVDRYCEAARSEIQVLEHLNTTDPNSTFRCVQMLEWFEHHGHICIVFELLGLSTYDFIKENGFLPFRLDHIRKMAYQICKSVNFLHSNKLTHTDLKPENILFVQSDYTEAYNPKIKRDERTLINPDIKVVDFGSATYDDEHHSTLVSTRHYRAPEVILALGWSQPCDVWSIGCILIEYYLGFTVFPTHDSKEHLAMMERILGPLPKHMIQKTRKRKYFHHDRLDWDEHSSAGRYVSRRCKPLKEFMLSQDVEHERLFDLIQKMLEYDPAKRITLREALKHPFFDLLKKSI
Chain of LRRK2 (G2019S) (Q5S007 970-2527 G2019S limits assumed): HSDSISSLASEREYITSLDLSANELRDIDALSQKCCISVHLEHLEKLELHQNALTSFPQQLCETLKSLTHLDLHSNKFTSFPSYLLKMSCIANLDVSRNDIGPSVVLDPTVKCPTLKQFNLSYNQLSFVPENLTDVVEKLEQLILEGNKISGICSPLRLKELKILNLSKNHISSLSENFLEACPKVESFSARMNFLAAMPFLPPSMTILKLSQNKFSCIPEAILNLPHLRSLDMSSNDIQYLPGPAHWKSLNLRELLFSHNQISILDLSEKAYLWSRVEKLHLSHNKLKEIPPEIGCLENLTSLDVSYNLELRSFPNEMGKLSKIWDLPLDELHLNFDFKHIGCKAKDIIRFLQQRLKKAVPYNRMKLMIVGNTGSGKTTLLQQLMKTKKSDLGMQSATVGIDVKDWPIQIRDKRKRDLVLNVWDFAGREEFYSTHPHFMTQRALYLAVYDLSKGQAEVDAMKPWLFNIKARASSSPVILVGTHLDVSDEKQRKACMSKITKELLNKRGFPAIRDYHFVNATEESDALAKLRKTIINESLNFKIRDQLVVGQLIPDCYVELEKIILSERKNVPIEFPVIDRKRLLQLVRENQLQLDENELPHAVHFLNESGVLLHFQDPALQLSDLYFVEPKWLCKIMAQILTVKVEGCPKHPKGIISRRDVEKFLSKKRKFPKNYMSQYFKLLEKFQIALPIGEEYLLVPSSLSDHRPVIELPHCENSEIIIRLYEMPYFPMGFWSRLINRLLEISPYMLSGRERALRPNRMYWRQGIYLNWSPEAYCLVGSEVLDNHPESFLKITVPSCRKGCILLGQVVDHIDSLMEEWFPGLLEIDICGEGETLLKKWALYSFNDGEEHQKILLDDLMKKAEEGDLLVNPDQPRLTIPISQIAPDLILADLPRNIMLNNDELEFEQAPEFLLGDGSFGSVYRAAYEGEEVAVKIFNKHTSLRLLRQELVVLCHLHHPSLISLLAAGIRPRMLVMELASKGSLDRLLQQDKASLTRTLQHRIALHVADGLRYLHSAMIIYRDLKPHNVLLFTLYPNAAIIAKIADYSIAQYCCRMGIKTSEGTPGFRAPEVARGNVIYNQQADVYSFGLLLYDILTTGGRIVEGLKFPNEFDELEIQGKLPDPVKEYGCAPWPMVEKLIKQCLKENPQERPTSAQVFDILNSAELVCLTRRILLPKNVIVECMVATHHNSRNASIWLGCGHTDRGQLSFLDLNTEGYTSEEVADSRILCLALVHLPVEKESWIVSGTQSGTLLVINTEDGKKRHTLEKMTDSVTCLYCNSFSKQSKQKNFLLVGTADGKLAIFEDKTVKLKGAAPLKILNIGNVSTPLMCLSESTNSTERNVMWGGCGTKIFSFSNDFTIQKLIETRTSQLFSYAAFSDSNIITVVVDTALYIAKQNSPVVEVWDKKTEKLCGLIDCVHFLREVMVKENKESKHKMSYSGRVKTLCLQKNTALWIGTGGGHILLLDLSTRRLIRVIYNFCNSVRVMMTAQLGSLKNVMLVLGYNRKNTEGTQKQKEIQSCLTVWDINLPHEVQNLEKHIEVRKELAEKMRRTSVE

In the case of `O=C(c1ccc(Nc2nc(NC3CCCCC3)c3cc[nH]c3n2)c2c1OCCO2)N1CCOCC1` [Example 49, (8-((4-(cyclohexylamino)-7H-pyrrolo[2,3-d]pyrimidin-2-yl)amino)-2,3-dihydrobenzo[b][1,4]dioxin-5-yl)(morpholino)methanone 2,2,2-trifluoroacetate], the IC50 [1] is reported as 301 to 1000 nM, the IC50 [2] is reported as 301 to 1000 nM and the IC50 [3] is reported as < 100 nM.

In the case of `O=C(c1ccc(Nc2nc(NC3CCOCC3)c3cc[nH]c3n2)c2c1OCCO2)N1CCOCC1` [Example 52, morpholino(8-((4-((tetrahydro-2H-pyran-4-yl)amino)-7H-pyrrolo[2,3-d]pyrimidin-2-yl)amino)-2,3-dihydrobenzo[b][1,4]dioxin-5-yl)methanone 2,2,2-trifluoroacetate], the IC50 [1] is reported as 301 to 1000 nM, the IC50 [2] is reported as 301 to 1000 nM and the IC50 [3] is reported as < 100 nM.

For `O=C(c1ccc(Nc2nc(NCC3CC3)c3cc[nH]c3n2)c2c1OCCO2)N1CCOCC1` [Example 53, (8-((4-((cyclopropylmethyl)amino)-7H-pyrrolo[2,3-d]pyrimidin-2-yl)amino)-2,3-dihydrobenzo[b][1,4]dioxin-5-yl)(morpholino)methanone], the IC50 [1] was 301 to 1000 nM, the IC50 [2] was 301 to 1000 nM and the IC50 [3] was < 100 nM.

With `COc1cc(S(=O)(=O)N2CCC(N3CCOCC3)CC2)ccc1Nc1nc(NC2CC2)c2cc[nH]c2n1` [Example 54, N^4-cyclopropyl-N^2-(2-methoxy-4-((4-morpholinopiperidin-1-yl)sulfonyl)phenyl)-7H-pyrrolo[2,3-d]pyrimidine-2,4-diamine] the IC50 [1] was 301 to 1000 nM, the IC50 [2] was 301 to 1000 nM and the IC50 [3] was < 100 nM.

With `COc1cc(S(C)(=O)=O)ccc1Nc1nc(NC2CC2)c2cc[nH]c2n1` [Example 55, N^4-cyclopropyl-N^2-(2-methoxy-4-(methylsulfonyl)phenyl)-7H-pyrrolo[2,3-d]pyrimidine-2,4-diamine] the IC50 [1] was 301 to 1000 nM, the IC50 [2] was 301 to 1000 nM and the IC50 [3] was < 100 nM.

`O=C(c1ccc(Nc2nc(NC3CC3)c3cc[nH]c3n2)c2c1OCCO2)N1CCOCC1` [Example 56, (8-((4-(cyclopropylamino)-7H-pyrrolo[2,3-d]pyrimidin-2-yl)amino)-2,3-dihydrobenzo[b][1,4]dioxin-5-yl)(morpholino)methanone] was tested, and the IC50 [1] was 301 to 1000 nM, the IC50 [2] was 301 to 1000 nM and the IC50 [3] was < 100 nM.

In the case of `COc1cc(S(=O)(=O)N2CCOCC2)ccc1Nc1nc(NC2CC2)c2cc[nH]c2n1` [Example 57, N^4-cyclopropyl-N^2-(2-methoxy-4-(morpholinosulfonyl)phenyl)-7H-pyrrolo[2,3-d]pyrimidine-2,4-diamine], the IC50 [1] is reported as 301 to 1000 nM, the IC50 [2] is reported as 301 to 1000 nM and the IC50 [3] is reported as < 100 nM.

In the case of `CC[C@@H](C)Nc1nc(Nc2ccc(S(=O)(=O)N3CCOCC3)cc2OC)nc2[nH]ccc12` [Example 59, (R)-N^4-(sec-butyl)-N^2-(2-methoxy-4-(morpholinosulfonyl)phenyl)-7H-pyrrolo[2,3-d]pyrimidine-2,4-diamine], the IC50 [1] is reported as 301 to 1000 nM, the IC50 [2] is reported as 301 to 1000 nM and the IC50 [3] is reported as < 100 nM.

`CC[C@H](C)Nc1nc(Nc2ccc(S(=O)(=O)N3CCOCC3)cc2OC)nc2[nH]ccc12` [Example 60, (S)-N^4-(sec-butyl)-N^2-(2-methoxy-4-(morpholinosulfonyl)phenyl)-7H-pyrrolo[2,3-d]pyrimidine-2,4-diamine] was tested, and the IC50 [1] was 301 to 1000 nM, the IC50 [2] was 301 to 1000 nM and the IC50 [3] was 101 to 300 nM.

In the case of `COc1cc(S(=O)(=O)N2CCOCC2)ccc1Nc1nc(NC2CCOCC2)c2c(C#N)c[nH]c2n1` [Example 76, 2-((2-methoxy-4-(morpholinosulfonyl)phenyl)amino)-4-((tetrahydro-2H-pyran-4-yl)amino)-7H-pyrrolo[2,3-d]pyrimidine-5-carbonitrile], the IC50 [1] is reported as 301 to 1000 nM, the IC50 [2] is reported as 301 to 1000 nM and the IC50 [3] is reported as < 100 nM.

`COc1cc(S(C)(=O)=O)ccc1Nc1nc(NCC(C)C)c2c(C#N)c[nH]c2n1` [Example 100, 4-(isobutylamino)-2-((2-methoxy-4-(methylsulfonyl)phenyl)amino)-7H-pyrrolo[2,3-d]pyrimidine-5-carbonitrile] was tested, and the IC50 [1] was 301 to 1000 nM, the IC50 [2] was 301 to 1000 nM and the IC50 [3] was < 100 nM.

With `COc1cc(S(C)(=O)=O)ccc1Nc1nc(NCC2CC2)c2c(C#N)c[nH]c2n1` [Example 110, 4-((cyclopropylmethyl)amino)-2-((2-methoxy-4-(methylsulfonyl)phenyl)amino)-7H-pyrrolo[2,3-d]pyrimidine-5-carbonitrile] the IC50 [1] was 301 to 1000 nM, the IC50 [2] was 301 to 1000 nM and the IC50 [3] was < 100 nM.

For `CC(C)CNc1nc(Nc2ccc(C(=O)N3CCOCC3)c3c2OCCO3)nc2[nH]cc(C#N)c12` [Example 121, 4-(isobutylamino)-2-((8-(morpholine-4-carbonyl)-2,3-dihydrobenzo[b][1,4]dioxin-5-yl)amino)-7H-pyrrolo[2,3-d]pyrimidine-5-carbonitrile], the IC50 [1] was 301 to 1000 nM, the IC50 [2] was 101 to 300 nM and the IC50 [3] was < 100 nM.

In the case of `CCNc1nc(Nc2ccc(P3(=O)CCN(Cc4ccc(OC)cc4OC)CC3)cn2)nc2[nH]cc(C(F)(F)F)c12` [Example 153, 1-(2,4-dimethoxybenzyl)-4-(6-((4-(ethylamino)-5-(trifluoromethyl)-7H-pyrrolo[2,3-d]pyrimidin-2-yl)amino)pyridin-3-yl)-1,4-azaphosphinane 4-oxide], the IC50 [1] is reported as < 100 nM, the IC50 [2] is reported as < 100 nM and the IC50 [3] is reported as < 100 nM.

With `O=C(c1ccc(Nc2nc(N[C@H]3CCOC3)c3c(C(F)(F)F)c[nH]c3n2)c2c1OCCO2)N1CCOCC1` [Example 209, (S)-morpholino(8-((4-((tetrahydrofuran-3-yl)amino)-5-(trifluoromethyl)-7H-pyrrolo[2,3-d]pyrimidin-2-yl)amino)-2,3-dihydrobenzo[b][1,4]dioxin-5-yl)methanone] the IC50 [1] was 301 to 1000 nM, the IC50 [2] was < 100 nM and the IC50 [3] was < 100 nM.

For `COc1cc(S(C)(=O)=O)ccc1Nc1nc(N[C@@H]2CCOC2)c2c(C(F)(F)F)c[nH]c2n1` [Example 210, (R)-N^2-(2-methoxy-4-(methylsulfonyl)phenyl)-N^4-(tetrahydrofuran-3-yl)-5-(trifluoromethyl)-7H-pyrrolo[2,3-d]pyrimidine-2,4-diamine], the IC50 [1] was 301 to 1000 nM, the IC50 [2] was 301 to 1000 nM and the IC50 [3] was < 100 nM.

In the case of `CNc1nc(Nc2ccc(P3(=O)CCN(C4CC4)CC3)cc2OC)nc2[nH]cc(C(F)(F)F)c12` [Example 216, 1-cyclopropyl-4-(3-methoxy-4-((4-(methylamino)-5-(trifluoromethyl)-7H-pyrrolo[2,3-d]pyrimidin-2-y)amino)phenyl)-1,4-azaphosphinane 4-oxide], the IC50 [1] is reported as 101 to 300 nM, the IC50 [2] is reported as 101 to 300 nM and the IC50 [3] is reported as < 100 nM.

In the case of `N#Cc1c[nH]c2nc(Nc3ccc(C(=O)N4CCOCC4)c4c3OCCO4)nc(NC3CCCCC3)c12` [Example 248], the IC50 [1] is reported as 301 to 1000 nM, the IC50 [2] is reported as 301 to 1000 nM and the IC50 [3] is reported as < 100 nM.

In the case of `COc1cc(P2(=O)CCN(C3COC3)CC2)ccc1Nc1nc(NC2CCC2)c2c(C#N)c[nH]c2n1` [Example 288, 4-(cyclo-butylamino)-2-((2-methoxy-4-(1-(oxetan-3-yl)-4-oxido-1,4-azaphosphinan-4-yl)phenyl)amino)-7H-pyrrolo[2,3-d]pyrimidine-5-carbonitrile], the IC50 [1] is reported as < 100 nM, the IC50 [2] is reported as < 100 nM and the IC50 [3] is reported as < 100 nM.

In the case of `N#Cc1c[nH]c2nc(Nc3ccc(C(=O)N4CCN(C5COC5)CC4)c4c3OCCO4)nc(NC3CCC3)c12` [Example 289, 4-(cyclo-butylamino)-2-((8-(4-(oxetan-3-yl)piperazine-1-carbonyl)-2,3-dihydrobenzo[b] [1,4]dioxin-5-yl)amino)-7H-pyrrolo[2,3-d]pyrimidine-5-carbonitrile], the IC50 [1] is reported as 301 to 1000 nM, the IC50 [2] is reported as < 100 nM and the IC50 [3] is reported as < 100 nM.
